T/C data for 16 compounds are collected here from PubChem BioAssay AID272 (DTP/NCI, 2004).

“And” between values parts separate entries of the source, which are not always exact repeats. Identical values can stand only once. Results filed as inconclusive are left out.

The assay has as its system Lewis lung carcinoma i.m., BDF1 mice, T/C %. Put plainly: NCI In Vivo Anticancer Drug Screen. Data for tumor model Lewis Lung Carcinoma (intramuscular) in B6D2F1 (BDF1) mice. An outline of the steps: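 Antitumour activity is assessed in transplanted-tumour mice. Endpoint is survival or tumour size, normalised to vehicle-dosed controls (T/C).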
Setting [1] is: endpoint: median survival time, dose: 25.0 mg/kg/injection, schedule: Q01DX011 (ip), vehicle: saline, higher = longer survival.
Setting [2] is: endpoint: median survival time, dose: 100.0 mg/kg/injection, schedule: Q01DX011 (ip), vehicle: saline, higher = longer survival.

As to `CCCCCCCCCCCCCCCC(=O)OCC1OC(n2ccc(N)nc2=O)C(O)C1O` (configuration not stated), the T/C was 76 % of control (endpoint: mean tumor weight (est.), dose: 7.5 mg/kg/injection, schedule: Q01DX009 (ip), vehicle: saline, higher = larger tumour); 39 % of control (endpoint: mean tumor weight (est.), dose: 15.0 mg/kg/injection, schedule: Q01DX009 (ip), vehicle: saline, higher = larger tumour); 67 % of control (endpoint: mean tumor weight (est.), dose: 25.0 mg/kg/injection, schedule: Q04DX003 (ip), vehicle: saline, higher = larger tumour); 45 % of control (endpoint: mean tumor weight (est.), dose: 37.5 mg/kg/injection, schedule: Q01DX001 (ip), vehicle: saline, higher = larger tumour); 19 % of control (endpoint: mean tumor weight (est.), dose: 50.0 mg/kg/injection, schedule: Q04DX003 (ip), vehicle: saline, higher = larger tumour); 19 % of control (endpoint: mean tumor weight (est.), dose: 75.0 mg/kg/injection, schedule: Q01DX001 (ip), vehicle: saline, higher = larger tumour). Besides, the T/C (endpoint: mean tumor weight (est.), dose: 150.0 mg/kg/injection, schedule: Q01DX001 (ip), vehicle: saline, higher = larger tumour) was 46 % of control; the T/C (endpoint: median survival time, dose: 37.5 mg/kg/injection, schedule: Q01DX001 (ip), vehicle: saline, higher = longer survival) is 93 % of control; the T/C (endpoint: median survival time, dose: 150.0 mg/kg/injection, schedule: Q01DX001 (ip), vehicle: saline, higher = longer survival) is 113 % of control.
For `CN(C)C(=O)c1cccc(COc2ccc(N3C(N)=NC(N)=NC3(C)C)cc2Cl)c1`, the T/C by setting is: (endpoint: mean tumor weight, dose: 3.13 mg/kg/injection, schedule: Q01DX011 (ip), vehicle: saline, higher = larger tumour) 66 % of control; (endpoint: mean tumor weight, dose: 12.5 mg/kg/injection, schedule: Q01DX011 (ip), vehicle: saline, higher = larger tumour) 66 % of control; (endpoint: median survival time, dose: 3.13 mg/kg/injection, schedule: Q01DX011 (ip), vehicle: saline, higher = longer survival) 103 % of control; (endpoint: median survival time, dose: 12.5 mg/kg/injection, schedule: Q01DX011 (ip), vehicle: saline, higher = longer survival) 88 % of control.
With `O=C(O)CCCC1CCCCC1.[Cu+2]`, the T/C (endpoint: mean tumor weight (est.), dose: 6.25 mg/kg/injection, schedule: Q01DX011 (ip), vehicle: saline with Tween-80, higher = larger tumour) is 61 % of control.
As to `O=C1CCCN1.O=C1CCCN1.[Br][Co][Br]`, the T/C runs as follows: (endpoint: mean tumor weight, dose: 37.5 mg/kg/injection, schedule: Q01DX011 (ip), vehicle: water, higher = larger tumour) 84 % of control; (endpoint: mean tumor weight, dose: 75.0 mg/kg/injection, schedule: Q01DX011 (ip), vehicle: water, higher = larger tumour) 65 % of control; (endpoint: median survival time, dose: 37.5 mg/kg/injection, schedule: Q01DX011 (ip), vehicle: water, higher = longer survival) 95 % of control; (endpoint: median survival time, dose: 75.0 mg/kg/injection, schedule: Q01DX011 (ip), vehicle: water, higher = longer survival) 110 % of control.
As to `COC(=O)Nc1nc2ccc(C(=O)c3cccs3)cc2[nH]1`, the T/C was 101 % of control (endpoint: median survival time, dose: 35.0 mg/kg/injection, schedule: Q03DX008 (ip), vehicle: other, higher = longer survival) and 86 % of control (endpoint: median survival time, dose: 70.0 mg/kg/injection, schedule: Q03DX008 (ip), vehicle: other, higher = longer survival).
`Nc1cc(S(N)(=O)=O)ccc1SSc1ccc(S(N)(=O)=O)cc1N`: the T/C (endpoint: mean tumor weight (est.), dose: 62.5 mg/kg/injection, schedule: Q01DX011 (ip), vehicle: saline with Tween-80, higher = larger tumour) was 65 % of control; the T/C (endpoint: mean tumor weight (est.), dose: 125.0 mg/kg/injection, schedule: Q01DX011 (ip), vehicle: saline with Tween-80, higher = larger tumour) is 24 % of control; the T/C (endpoint: median survival time, dose: 62.5 mg/kg/injection, schedule: Q01DX011 (ip), vehicle: saline with Tween-80, higher = longer survival) is 103 % of control; the T/C (endpoint: median survival time, dose: 125.0 mg/kg/injection, schedule: Q01DX011 (ip), vehicle: saline with Tween-80, higher = longer survival) was 98 % of control.
Turning to `CCOC(N)=O`, the T/C was 110 % of control under setting [1]; 100 % of control under setting [2]; 104 % of control (endpoint: median survival time, dose: 200.0 mg/kg/injection, schedule: Q01DX011 (ip), vehicle: saline, higher = longer survival); 110 % of control (endpoint: median survival time, dose: 400.0 mg/kg/injection, schedule: Q01DX011 (ip), vehicle: saline, higher = longer survival).
Consider `CCN(CC)CCOC(=O)c1ccccc1N(c1ccccc1)c1ccccc1`, for which the T/C runs as follows: (endpoint: mean tumor weight (est.), dose: 62.5 mg/kg/injection, schedule: Q01DX011 (ip), vehicle: Klucel (hydroxypropylcellulose) (HPC), higher = larger tumour) 67 % of control; (endpoint: mean tumor weight (est.), dose: 125.0 mg/kg/injection, schedule: Q01DX011 (ip), vehicle: Klucel (hydroxypropylcellulose) (HPC), higher = larger tumour) 59 % of control; (endpoint: median survival time, dose: 62.5 mg/kg/injection, schedule: Q01DX011 (ip), vehicle: Klucel (hydroxypropylcellulose) (HPC), higher = longer survival) 98 % of control.
On to `O=C1CN(CCN2CC(=O)NC(=O)C2)CC(=O)N1`, for which the T/C is 68 % of control and 80 % of control (endpoint: mean tumor weight, dose: 25.0 mg/kg/injection, schedule: Q01DX011 (ip), vehicle: steriod suspending solution, higher = larger tumour); 111 % of control and 117 % of control (endpoint: median survival time, dose: 12.5 mg/kg/injection, schedule: Q01DX011 (ip), vehicle: steriod suspending solution, higher = longer survival); 110 % of control and 114 % of control (endpoint: median survival time, dose: 25.0 mg/kg/injection, schedule: Q01DX011 (ip), vehicle: steriod suspending solution, higher = longer survival).
With `O=c1[nH]c(=O)n([C@H]2CCCO2)cc1F`, the T/C is 112 % of control (endpoint: mean tumor weight (est.), dose: 39.0 mg/kg/injection, schedule: Q01DX011 (ip), vehicle: saline, higher = larger tumour); 40 % of control (endpoint: mean tumor weight (est.), dose: 65.0 mg/kg/injection, schedule: Q01DX011 (ip), vehicle: saline, higher = larger tumour); 112 % of control (endpoint: median survival time, dose: 25.0 mg/kg/injection, schedule: Q04DX004 (ip), vehicle: other, higher = longer survival); 90 % of control (endpoint: median survival time, dose: 39.0 mg/kg/injection, schedule: Q01DX011 (ip), vehicle: saline, higher = longer survival); 100 % of control (endpoint: median survival time, dose: 50.0 mg/kg/injection, schedule: Q04DX004 (ip), vehicle: other, higher = longer survival); 119 % of control (endpoint: median survival time, dose: 65.0 mg/kg/injection, schedule: Q01DX011 (ip), vehicle: saline, higher = longer survival). Also, the T/C runs as follows: (endpoint: median survival time, dose: 100.0 mg/kg/injection, schedule: Q04DX004 (ip), vehicle: other, higher = longer survival) 100 % of control; (endpoint: median survival time, dose: 200.0 mg/kg/injection, schedule: Q04DX004 (ip), vehicle: other, higher = longer survival) 103 % of control.
With `COc1ccc(N=O)c(O)c1`, the T/C by setting is: under setting [1], 97 % of control; (endpoint: median survival time, dose: 50.0 mg/kg/injection, schedule: Q01DX011 (ip), vehicle: saline, higher = longer survival) 100 % of control; under setting [2], 110 % of control.
Take `O=C1NC(c2cccc3ccccc23)Nc2ccccc21` (configuration not stated): the T/C reads like this: (endpoint: mean tumor weight, dose: 15.6 mg/kg/injection, schedule: Q01DX011 (ip), vehicle: saline with Tween-80, higher = larger tumour) 86 % of control; (endpoint: mean tumor weight, dose: 31.2 mg/kg/injection, schedule: Q01DX011 (ip), vehicle: saline with Tween-80, higher = larger tumour) 80 % of control; (endpoint: mean tumor weight, dose: 62.5 mg/kg/injection, schedule: Q01DX011 (ip), vehicle: saline with Tween-80, higher = larger tumour) 90 % of control; (endpoint: mean tumor weight, dose: 125.0 mg/kg/injection, schedule: Q01DX011 (ip), vehicle: saline with Tween-80, higher = larger tumour) 67 % of control; (endpoint: median survival time, dose: 15.6 mg/kg/injection, schedule: Q01DX011 (ip), vehicle: saline, higher = longer survival) 102 % of control; (endpoint: median survival time, dose: 31.2 mg/kg/injection, schedule: Q01DX011 (ip), vehicle: saline, higher = longer survival) 119 % of control. Further, the T/C was 114 % of control (endpoint: median survival time, dose: 62.5 mg/kg/injection, schedule: Q01DX011 (ip), vehicle: saline, higher = longer survival) and 114 % of control (endpoint: median survival time, dose: 125.0 mg/kg/injection, schedule: Q01DX011 (ip), vehicle: saline, higher = longer survival).
Regarding `CNC(=S)N/N=C/C(C)=N/NC(=S)NC`, the T/C runs as follows: (endpoint: median survival time, dose: 0.2 micrograms/kg/injection, schedule: Q01DX011 (ip), vehicle: saline with Tween-80, higher = longer survival) 100 % of control; (endpoint: median survival time, dose: 0.5 micrograms/kg/injection, schedule: Q01DX011 (ip), vehicle: saline with Tween-80, higher = longer survival) 102 % of control; (endpoint: median survival time, dose: 1.0 micrograms/kg/injection, schedule: Q01DX011 (ip), vehicle: saline with Tween-80, higher = longer survival) 102 % of control.
Consider `CCCCCCCCCCCC[N+](C)(C)C` (tested in a mixture with another compound), for which the T/C (endpoint: median survival time, dose: 6.25 mg/kg/injection, schedule: Q01DX011 (ip), vehicle: saline, higher = longer survival) was 110 % of control.
`C[C@H]1CN1C1=CC(=O)C(N2C[C@@H]2C)=CC1=O`: the T/C is, setting by setting: (endpoint: median survival time, dose: 0.5 mg/kg/injection, schedule: Q01DX011 (ip), vehicle: saline with Tween-80, higher = longer survival) 102 % of control; (endpoint: median survival time, dose: 1.0 mg/kg/injection, schedule: Q01DX011 (ip), vehicle: saline with Tween-80, higher = longer survival) 113 % of control; (endpoint: median survival time, dose: 4.0 mg/kg/injection, schedule: Q01DX011 (ip), vehicle: saline with Tween-80, higher = longer survival) 108 % of control.
Regarding `Clc1ccc(C(c2ccccc2Cl)C(Cl)Cl)cc1` (configuration not stated), the T/C was 88 % of control (endpoint: median survival time, dose: 50.0 mg/kg/injection, schedule: Q01DX011 (ip), vehicle: Klucel (hydroxypropylcellulose) (HPC), higher = longer survival) and 95 % of control (endpoint: median survival time, dose: 100.0 mg/kg/injection, schedule: Q01DX011 (ip), vehicle: Klucel (hydroxypropylcellulose) (HPC), higher = longer survival).
